Results reported in US4089965A, “Thiazolylphenylguanidines as antirhinovirus agents” (American Cyanamid Company, priority 1977, dated 1978).
≈ marks a conversion by molar mass, not a printed value. Where “and” joins values, the source holds several entries; their conditions need not be identical. Identical values can stand only once.

Tests used:
Coxsackievirus A-15 = assay: Plaque assay, minimal inhibitory concentration; assay type: cell-based; details: HeLa Cells, inhibiting virus plaque formation by 50%
Rhinovirus Serotype 2 = assay: Plaque assay, minimal inhibitory concentration; assay type: cell-based; details: Enterovirus, inhibiting virus plaque formation by 50%
Poliovirus Type 1 = assay: microbe, parasite or virus in culture; assay type: cell-based; details: Enterovirus C, HeLa, read-out: Minimal Inhibitory Concentration
Rhinovirus Type 38 = assay: Viral sensitivity, filter disc method; assay type: cell-based; details: strain CH79; about 50 mcg per disc, HeLa
Protocol: (§1) In the test for viral sensitivity, by the filter disc method, 5 mg. of 1-(4-phenyl-2-thiazolyl)-3-phenylguanidine was dissolved in 1-2 drops of dimethylsulfoxide and 2.5 ml. of saline. Filter paper discs, when saturated with the solution, absorbed about 50 mcg. of the compound.
(§2) Sensitivity tests were performed by a modification of the method of Herrmann, et al., Proc. Soc. Exp. Biol. & Med., 103, 625 (1960). HeLa monolayers in 150 mm plastic dishes were infected with 1.0 ml. of rhinovirus suspension known to produce destruction of 80-90% of the cells in 4 to 5 days. Following viral adsorption, the cells were overlayed with 30 ml. of Eagle's minimum essential medium containing Noble agar at 0.5%, bovine fetal serum at 2.0%, diethylaminoethyl dextran at 100 mcg/ml. and magnesium chloride at 3 millimoles. Filter discs (1/4 inch Carl Schleicher and Schuell Co., No. 740E), containing about 50 mcg. of 1-(4-phenyl-2-thiazolyl)-3-phenylguanidine, were placed on the solidified surface and the culture plates incubated at 33° C. After 4 to 5 days, the overlay medium was decanted and the cells stained with 0.1% crystal violet in 20% ethanol. A zone of 10 mm or more in which at least two-thirds of the cells were protected from viral cytopathic effects, indicates antiviral activity. The following Table III lists 35 rhinovirus serotypes which were inhibited by this compound.

Rhinovirus Type 49 = assay: Viral sensitivity, filter disc method; assay type: cell-based; details: strain 8213; about 50 mcg per disc, HeLa
Protocol: as §1, §2

Rhinovirus Type 26 = assay: Viral sensitivity, filter disc method; assay type: cell-based; details: strain 5660CV27; about 50 mcg per disc, HeLa
Protocol: as §1, §2

Rhinovirus Type 46 = assay: Viral sensitivity, filter disc method; assay type: cell-based; details: strain Baylor 2; about 50 mcg per disc, HeLa
Protocol: as §1, §2

Rhinovirus Type 50 = assay: Viral sensitivity, filter disc method; assay type: cell-based; details: strain A2 No. 58; about 50 mcg per disc, HeLa
Protocol: as §1, §2

Rhinovirus Type 23 = assay: Viral sensitivity, filter disc method; assay type: cell-based; details: strain 5124CV24; about 50 mcg per disc, HeLa
Protocol: as §1, §2

Rhinovirus Type 1B = assay: Viral sensitivity, filter disc method; assay type: cell-based; details: strain B632; about 50 mcg per disc, HeLa, 33° C., 4 to 5 days
Protocol: as §1, §2

Rhinovirus Type 24 = assay: Viral sensitivity, filter disc method; assay type: cell-based; details: strain 5146CV25; about 50 mcg per disc, HeLa
Protocol: as §1, §2

Rhinovirus Type 14 = assay: Viral sensitivity, filter disc method; assay type: cell-based; details: strain 1059; about 50 mcg per disc, HeLa
Protocol: as §1, §2

Rhinovirus Type 53 = assay: Viral sensitivity, filter disc method; assay type: cell-based; details: strain FO13928; about 50 mcg per disc, HeLa
Protocol: as §1, §2

Rhinovirus Type 21 = assay: Viral sensitivity, filter disc method; assay type: cell-based; details: strain 47CV21; about 50 mcg per disc, HeLa
Protocol: as §1, §2

Rhinovirus Type 34 = assay: Viral sensitivity, filter disc method; assay type: cell-based; details: strain 137-3; about 50 mcg per disc, HeLa
Protocol: as §1, §2

Rhinovirus Type 2 = assay: Viral sensitivity, filter disc method; assay type: cell-based; details: strain HGP; about 50 mcg per disc, HeLa
Protocol: as §1, §2

Rhinovirus Serotype 3 = assay: Plaque assay, minimal inhibitory concentration; assay type: cell-based; details: Enterovirus; HeLa Cells; inhibiting virus plaque formation by 50%
Coxsackievirus A-22 = assay: Plaque assay, minimal inhibitory concentration; assay type: cell-based; details: HeLa Cells, inhibiting virus plaque formation by 50%
Rhinovirus Serotype 1B = assay: Virus Yield Reduction Test; assay type: cell-based; details: for Virus yield: HeLa
rhinovirus 32 [1] = assay: Clinical challenge study, virus isolation from nasal washings; assay type: in vivo, human; details: individual subjects on medication, intranasal; + or 0
Rhinovirus Serotype 14 = assay: Plaque assay, minimal inhibitory concentration; assay type: cell-based; details: Enterovirus; HeLa Cells; inhibiting virus plaque formation by 50%
Coxsackievirus B-5 = assay: Plaque assay, minimal inhibitory concentration; assay type: cell-based; details: HeLa Cells, inhibiting virus plaque formation by 50%
Coxsackievirus B-1 = assay: Plaque assay, minimal inhibitory concentration; assay type: cell-based; details: HeLa Cells, inhibiting virus plaque formation by 50%
Rhinovirus Serotype 1A = assay: Plaque assay, minimal inhibitory concentration; assay type: cell-based; details: Enterovirus; HeLa Cells; inhibiting virus plaque formation by 50%
Rhinovirus Serotype 52 = assay: Plaque assay, minimal inhibitory concentration; assay type: cell-based; details: Enterovirus; HeLa Cells; inhibiting virus plaque formation by 50%
Rhinovirus strain 23 = assay: Protection of tissue from cytopathic effects (plaque inhibition, filter paper disc or agar overlay); details: 33°, 3 to 5 days
rhinovirus 32 [2] = assay: Clinical challenge study in volunteers, clinical symptoms and infection; assay type: in vivo, human; details: intranasal
Rhinovirus Serotype 50 = assay: Plaque assay, minimal inhibitory concentration; assay type: cell-based; details: Enterovirus; HeLa Cells; inhibiting virus plaque formation by 50%

## N=C(Nc1ccccc1)Nc1nc(-c2ccccc2)cs1 [1-(4-phenyl-2-thiazolyl)-3-phenylguanidine]
Coxsackievirus A-15
  IC50: 1.6 to 3.1 µg/mL (≈ 5.44 to 10.5 µM)
Rhinovirus Serotype 2; L132, L-132 Cells
  IC50: 0.4 to 0.8 µg/mL (≈ 1.36 to 2.72 µM)
Rhinovirus Serotype 2; Detroit-6 Cells
  IC50: 0.4 µg/mL (≈ 1.36 µM)
Rhinovirus Serotype 2; HeLa Cells
  IC50: 0.4 to 0.8 µg/mL (≈ 1.36 to 2.72 µM)
Poliovirus Type 1
  IC50: 0.8 µg/mL (≈ 2.72 µM)
Rhinovirus Type 38
  inhibition of rhinovirus serotype (zone of 10 mm or more): inhibited
Rhinovirus Type 49
  inhibition of rhinovirus serotype (zone of 10 mm or more): inhibited
Rhinovirus Type 26
  inhibition of rhinovirus serotype (zone of 10 mm or more): inhibited
Rhinovirus Type 46
  inhibition of rhinovirus serotype (zone of 10 mm or more): inhibited
Rhinovirus Type 50
  inhibition of rhinovirus serotype (zone of 10 mm or more): inhibited
Rhinovirus Type 23
  inhibition of rhinovirus serotype (zone of 10 mm or more): inhibited
Rhinovirus Type 1B
  inhibition of rhinovirus serotype (zone of 10 mm or more): inhibited
Rhinovirus Type 24
  inhibition of rhinovirus serotype (zone of 10 mm or more): inhibited
Rhinovirus Type 14
  inhibition of rhinovirus serotype (zone of 10 mm or more): inhibited
Rhinovirus Type 53
  inhibition of rhinovirus serotype (zone of 10 mm or more): inhibited
Rhinovirus Type 21
  inhibition of rhinovirus serotype (zone of 10 mm or more): inhibited
Rhinovirus Type 34
  inhibition of rhinovirus serotype (zone of 10 mm or more): inhibited
Rhinovirus Type 2
  inhibition of rhinovirus serotype (zone of 10 mm or more): inhibited
Rhinovirus Serotype 3
  IC50: 0.4 to 0.8 µg/mL (≈ 1.36 to 2.72 µM)
Coxsackievirus A-22
  IC50: 1.6 to 3.1 µg/mL (≈ 5.44 to 10.5 µM)
Rhinovirus Serotype 1B; 24 hours, cultures treated with 0.4 to 0.8 mcg/ml
  suppression of virus yield: 1-2 logs
Rhinovirus Serotype 1B; 0.4 mcg/ml, 0 Hour to +6 Hour, 24 Hours, no drug 7.0
  Virus yield: 5.2 Plaque-Forming Units/ml. (Log
Rhinovirus Serotype 1B; 0.4 mcg/ml, 0 Hour to +6 Hour, 48 Hours, no drug 7.0
  Virus yield: 5.8 Plaque-Forming Units/ml. (Log
Rhinovirus Serotype 1B; 0.4 mcg/ml, +1 Hour to +7 Hour, 24 Hours, no drug 7.0
  Virus yield: 6.4 Plaque-Forming Units/ml. (Log
Rhinovirus Serotype 1B; 0.4 mcg/ml, +1 Hour to +7 Hour, 48 Hours, no drug 7.2
  Virus yield: 7.1 Plaque-Forming Units/ml. (Log
Rhinovirus Serotype 1B; 0.8 mcg/ml, 0 Hour to +6 Hour, 24 Hours, no drug 7.0
  Virus yield: 5.7 Plaque-Forming Units/ml. (Log
Rhinovirus Serotype 1B; 0.8 mcg/ml, 0 Hour to +6 Hour, 48 Hours, no drug 7.0
  Virus yield: 6.3 Plaque-Forming Units/ml. (Log
Rhinovirus Serotype 1B; 0.8 mcg/ml, +1 Hour to +7 Hour, 24 Hours, no drug 7.0
  Virus yield: 6.0 Plaque-Forming Units/ml. (Log
Rhinovirus Serotype 1B; 0.8 mcg/ml, +1 Hour to +7 Hour, 48 Hours, no drug 7.2
  Virus yield: 7.4 Plaque-Forming Units/ml. (Log
Rhinovirus Serotype 1B; 1.6 mcg/ml, 0 Hour to +6 Hour, 24 Hours, no drug 7.0
  Virus yield: 5.5 Plaque-Forming Units/ml. (Log
Rhinovirus Serotype 1B; 1.6 mcg/ml, 0 Hour to +6 Hour, 48 Hours, no drug 7.0
  Virus yield: 6.2 Plaque-Forming Units/ml. (Log
Rhinovirus Serotype 1B; 1.6 mcg/ml, +1 Hour to +7 Hour, 24 Hours, no drug 7.0
  Virus yield: 5.4 Plaque-Forming Units/ml. (Log
Rhinovirus Serotype 1B; 1.6 mcg/ml, +1 Hour to +7 Hour, 48 Hours, no drug 7.2
  Virus yield: 6.6 Plaque-Forming Units/ml. (Log
Rhinovirus Serotype 1B; 3.1 mcg/ml, 0 Hour to +6 Hour, 24 Hours, no drug 7.0
  Virus yield: 5.5 Plaque-Forming Units/ml. (Log
Rhinovirus Serotype 1B; 3.1 mcg/ml, 0 Hour to +6 Hour, 48 Hours, no drug 7.0
  Virus yield: 6.1 Plaque-Forming Units/ml. (Log
Rhinovirus Serotype 1B; 3.1 mcg/ml, +1 Hour to +7 Hour, 24 Hours, no drug 7.0
  Virus yield: 4.7 Plaque-Forming Units/ml. (Log
Rhinovirus Serotype 1B; 3.1 mcg/ml, +1 Hour to +7 Hour, 48 Hours, no drug 7.2
  Virus yield: 6.3 Plaque-Forming Units/ml. (Log
Rhinovirus Serotype 1B; 6.2 mcg/ml, 0 Hour to +6 Hour, 24 Hours, no drug 7.0
  Virus yield: 5.8 Plaque-Forming Units/ml. (Log
Rhinovirus Serotype 1B; 6.2 mcg/ml, 0 Hour to +6 Hour, 48 Hours, no drug 7.0
  Virus yield: 6.1 Plaque-Forming Units/ml. (Log
Rhinovirus Serotype 1B; 6.2 mcg/ml, +1 Hour to +7 Hour, 24 Hours, no drug 7.0
  Virus yield: 4.5 Plaque-Forming Units/ml. (Log
Rhinovirus Serotype 1B; 6.2 mcg/ml, +1 Hour to +7 Hour, 48 Hours, no drug 7.2
  Virus yield: 5.6 Plaque-Forming Units/ml. (Log
Rhinovirus Serotype 1B; 12.5 mcg/ml, +1 Hour to +7 Hour, 24 Hours, no drug 7.0
  Virus yield: 3.8 Plaque-Forming Units/ml. (Log
Rhinovirus Serotype 1B; 12.5 mcg/ml, +1 Hour to +7 Hour, 48 Hours, no drug 7.2
  Virus yield: 5.2 Plaque-Forming Units/ml. (Log
Rhinovirus 32 [1]
  Virus Isolation From Nasal Washings: 0
Rhinovirus Serotype 14
  IC50: 0.8 to 1.6 µg/mL (≈ 2.72 to 5.44 µM)
Coxsackievirus B-5
  IC50: 0.8 to 1.6 µg/mL (≈ 2.72 to 5.44 µM)
Coxsackievirus B-1
  IC50: 1.6 to 3.1 µg/mL (≈ 5.44 to 10.5 µM)
Rhinovirus Serotype 1A
  IC50: 0.2 to 0.4 µg/mL (≈ 0.679 to 1.36 µM)
Rhinovirus Serotype 52
  IC50: 0.4 µg/mL (≈ 1.36 µM)
Rhinovirus strain 23
  Protection of tissue from destruction by virus: +
Rhinovirus 32 [2]; individual subjects on medication (No. 3, 4, 6, 7, 9, 10, 13, 14, 17, 20, in order of lines), signs and symptoms scaled 0 not present to +3 severe
  Clinical Symptom Scores: 0 and 11 and 2 and 4 and 3 and 5 and 6 and 1
Rhinovirus 32 [2]
  protection of humans from rhinovirus type 32 infection: effective in protecting humans from rhinovirus type 32 infection
Rhinovirus 32 [2]; rhinovirus type 32 challenge, placebo 4 of 10
  volunteers who did not develop rhinovirus infection from challenge: 9 of 10
Rhinovirus Serotype 50
  IC50: 0.2 to 0.4 µg/mL (≈ 0.679 to 1.36 µM)
